Values after ≈ are worked out from the molar mass of the structure shown. Read-outs that look alike come from different tables or passages of the source.
Tests used:
Type in all cases: cell-based
[1] = test system: Staphylococcus epidermidis; test: MIC and MBC determination, microdilution method; settings: for MIC: 18 h, read-out: MIC, S. epidermidis; for MBC: read-out: MBC, S. epidermidis
Procedure: (§1) The antimicrobial activities of the compounds were tested against clinical strains of an aerobic Gram-negative bacterium—Pseudomonas aeruginosa (P. aeruginosa), facultative anaerobic Gram-positive bacteria—Staphylococcus aureus (S. aureus) and Staphylococcus epidermidis (S. epidermidis), anaerobic Gram-positive bacterium—Cutibacterium acnes (C. acnes), and yeast-like fungus—Candida albicans (C. albicans).
(§2) Aerobic and facultative anaerobic bacteria cultures were grown in Brain Heart Infusion broth (BHI, bioMerieux, France) at 35 °C ± 1 °C for 18 h, C. acnes cultures were grown in thioglycolate broth with resazurin (TGB, bioMerieux, France) at 35 ± 1 °C for 48 h, and yeast cultures were grown in Sabouraud dextrose broth (SDB, Merck, Germany) at 35 ± 1 °C for 24 h. After incubation, each culture was diluted in a suitable liquid medium: P. aeruginosa, S. aureus, and S. epidermidis—Mueller–Hinton broth (MHB; Oxoid, UK); C. acnes—TGB; and C. albicans—SDB, to obtain a final suspension containing about 10^6 CFU/mL.
(§3) The microdilution method was employed to determine the compounds’ MIC (Minimal Inhibitory Concentration) and MBC/MFC (Minimal Bactericidal Concentration/Minimal Fungicidal Concentration) against the tested bacterial and fungal strains.
(§4) The compounds were serially diluted (2-fold) in the respective media (P. aeruginosa, S. aureus, and S. epidermidis—MHB, C. acnes—TGB, and C. albicans—SDB in 96-well plates), and the microbial suspensions were added. The compounds were tested in the final concentration range of 4 096 to 0.125 μg/mL, and the final microbial inoculum was approximately 5 ×10^5 CFU/mL. The tests were incubated at 35 °C ± 1 °C for 18 h (P. aeruginosa, S. aureus, and S. epidermidis) or 24 h (C. albicans) or 48 h (C. acnes). C. acnes was incubated in an anaerobic atmosphere using a GENbag anaer (bioMerieux, France). Media (without the strains) added to the different concentrations of tested compounds and media inoculated with microbial suspension were used as a negative control and growth control, respectively.
(§5) The MIC was defined as the lowest concentration at which visible growth was inhibited. MBC and MFC concentrations were determined as an extension of the MIC test. […] The plates were incubated at 35 ± 1 °C for 18–72 h. C. acnes was incubated in an anaerobic atmosphere. The MBC/MFC was defined as the lowest concentration at which no growth was observed. All tests were performed in duplicate.

Cutibacterium acnes = test: MIC and MBC determination, microdilution method; settings: Cutibacterium acnes; for MIC: 48 h, read-out: MIC, C. acnes; for MBC: read-out: MBC, C. acnes
Procedure: as §1, §2, §3, §4, §5

Pseudomonas aeruginosa = test: MIC and MBC determination, microdilution method; settings: for MIC: 18 h, read-out: MIC, P. aeruginosa
Procedure: as §1, §2, §3, §4, §5

Staphylococcus aureus = test: MIC and MBC determination, microdilution method; settings: for MIC: 18 h, read-out: MIC, S. aureus; for MBC: read-out: MBC, S. aureus
Procedure: as §1, §2, §3, §4, §5

Candida albicans = test: MIC and MFC determination, microdilution method; settings: clinical strain, tested 4 096 to 0.125 μg/mL, b = out of range
Procedure: as §1, §2, §3, §4, §5

[2] = clinical strain, tested 4 096 to 0.125 μg/mL, b = out of range
[3] = clinical strain, anaerobic, tested 4 096 to 0.125 μg/mL, b = out of range

With CCCCCCCCCC[n+]1cccc(C(N)=O)c1.O=C([O-])c1ccccc1O [compound 5] the MIC [1] was 256 µg/mL, the MBC [1] was 256 µg/mL and the MIC (Cutibacterium acnes) was 1020 µg/mL. The MBC (Cutibacterium acnes) was 1020 µg/mL, the MIC (Pseudomonas aeruginosa) was 1020 µg/mL and the MIC (Staphylococcus aureus) was 256 µg/mL. For the same molecule, the MBC (Staphylococcus aureus) was 256 µg/mL.

Work on CCCCCCCC[n+]1cccc(C(N)=O)c1.O=C([O-])c1ccccc1O [compound 4] yielded an MIC [1] of 2050 µg/mL and an MIC (Staphylococcus aureus) of 1020 µg/mL.

O=C(O)c1ccccc1O [SAL, salicylic acid, reference compound] showed an MIC [1, 2] of 1020 µg/mL (≈ 7.41 mM), an MBC [1, 2] of 1020 µg/mL (≈ 7.41 mM) and an MIC (Cutibacterium acnes; [3]) of 1020 µg/mL (≈ 7.41 mM). The MBC (Cutibacterium acnes; [3]) was 4100 µg/mL (≈ 29.7 mM), the MIC (Pseudomonas aeruginosa; [2]) was 2050 µg/mL (≈ 14.8 mM) and the MBC (Pseudomonas aeruginosa; clinical strain, tested 4 096 to 0.125 μg/mL, b = out of range, read-out: MBC, P. aeruginosa) was 4100 µg/mL (≈ 29.7 mM). The MIC (Staphylococcus aureus; [2]) was 1020 µg/mL (≈ 7.41 mM), the MBC (Staphylococcus aureus; [2]) was 1020 µg/mL (≈ 7.41 mM) and the MIC (Candida albicans; 24 h, read-out: MIC, C. albicans) was 2050 µg/mL (≈ 14.8 mM). The MFC (Candida albicans; read-out: MFC, C. albicans) was 2050 µg/mL (≈ 14.8 mM).

CCCCCC[n+]1cccc(C(N)=O)c1.O=C([O-])c1ccccc1O [compound 3] showed an MIC [1] of 4100 µg/mL and an MIC (Staphylococcus aureus) of 2050 µg/mL.
